From publication PMC6896057, “Dual PDK1/Aurora Kinase A Inhibitors Reduce Pancreatic Cancer Cell Proliferation and Colony Formation” (Cancers, 2019)

Columns and labels:
Format in all cases: cell-based, human
[1] = tested on: PLK1 Thr210 phosphorylation in AsPC-1; assay: Western blot, phosphorylation of PLK1 at Thr210, nocodazole-synchronized cells; conditions: 5 μM, 1 h, nocodazole 200 ng/mL
Procedure: (§1) Lysates were then assessed by Western blotting using the indicated antibodies. Representative blots of at least three independent experiments are shown. The percentage of phosphorylated PLCγ1 is calculated by normalization to the loading control GAPDH. […] The percentage of phosphorylated PLK1 is calculated by normalization to the loading control α-actinin. […] The percentage of phosphorylated Histone H3 is calculated by normalization to the loading control α-actinin.
(§2) Cells (300,000 per well) from different cell lines were seeded in six-well plates. The next day, five wells were stimulated with nocodazole 200 ng/mL for 24 h. […] To analyze the expression of phosphorylated PLCγ, cells were incubated overnight in serum-free culture media. […] Cells were then collected by scraping and lysed in cold radioimmunoprecipitation assay buffer (150 mM sodium chloride, 1.0% NP-40 or Triton X-100, 0.5% sodium deoxycholate, 0.1% sodium dodecyl sulphate, 50 mM Tris HCl, pH 8.0) supplemented with 1X Protease/Phosphatase Inhibitor Cocktail (100X stock, Sigma Aldrich, St. Louis, MO, USA). Lysates were sonicated at 4 °C and centrifuged at 10,000 g for 10 min at 4 °C. Supernatants were transferred in a 1.5 mL Eppendorf tube and protein concentrations were determined using the Direct Detect Assay-Free cards and the Direct Detect Spectrometer (Merck Millipore, Decantur, IL, USA). […]

[2] = tested on: PLK1 Thr210 phosphorylation in HPAF-II; assay: as above; conditions: 5 μM, 1 h, nocodazole 200 ng/mL
Procedure: as §1, §2

[3] = tested on: phosphorylation of Aurora A at Thr288 in HPAF-II; assay: Western blot, Aurora A phosphorylation at Thr288, nocodazole-synchronized cells; conditions: 10 µM, 1 h, nocodazole 200 ng/mL
Procedure: (§3) Lysates were then assessed by Western blotting using the indicated antibodies. Representative blots of at least three independent experiments are shown. In all blots, Akt total (A,B) and α-actinin (C,D) were used as loading control. In (A,B) membranes incubated with pAkt (Thr308) were stripped and re-incubated with anti Akt. The percentage of phosphorylated Akt is calculated by normalization to the loading control total Akt. In (C,D) membranes incubated with pAurora (Thr288) were stripped and re-incubated with anti-Aurora A. The percentage of phosphorylated Aurora A is calculated by normalization to the loading control α-actinin.
(§4) Cells (300,000 per well) from different cell lines were seeded in six-well plates. The next day, five wells were stimulated with nocodazole 200 ng/mL for 24 h. […] To analyze the expression of phosphorylated PLCγ, cells were incubated overnight in serum-free culture media. […] Supernatants were transferred in a 1.5 mL Eppendorf tube and protein concentrations were determined using the Direct Detect Assay-Free cards and the Direct Detect Spectrometer (Merck Millipore, Decantur, IL, USA). […]

[4] = tested on: phosphorylation of Aurora A at Thr288 in AsPC-1; assay: as above; conditions: 10 µM, 1 h, nocodazole 200 ng/mL
Procedure: as §3, §4

[5] = tested on: PLCγ1 Tyr783 phosphorylation in AsPC-1; assay: Western blot, EGF-induced phosphorylation of PLCγ1 at Tyr783; conditions: 5 μM, 30 min, then EGF 25 ng/mL 10 min
Procedure: as §1
(§5) Cells (300,000 per well) from different cell lines were seeded in six-well plates. The next day, five wells were stimulated with nocodazole 200 ng/mL for 24 h. Then four wells were treated for 2 h with the inhibitors of interest. To analyze the expression of phosphorylated PLCγ, cells were incubated overnight in serum-free culture media. […] Cells were then collected by scraping and lysed in cold radioimmunoprecipitation assay buffer (150 mM sodium chloride, 1.0% NP-40 or Triton X-100, 0.5% sodium deoxycholate, 0.1% sodium dodecyl sulphate, 50 mM Tris HCl, pH 8.0) supplemented with 1X Protease/Phosphatase Inhibitor Cocktail (100X stock, Sigma Aldrich, St. Louis, MO, USA). […] Supernatants were transferred in a 1.5 mL Eppendorf tube and protein concentrations were determined using the Direct Detect Assay-Free cards and the Direct Detect Spectrometer (Merck Millipore, Decantur, IL, USA). […]

[6] = tested on: PLCγ1 Tyr783 phosphorylation in HPAF-II; assay: as above; conditions: 5 μM, 30 min, then EGF 25 ng/mL 10 min
Procedure: as §1, §5

[7] = tested on: phosphorylation of Akt at Thr308 in HPAF-II; assay: Western blot, FBS-induced phosphorylation of Akt at Thr308; conditions: 5 μM, FBS 1 h
Procedure: as §3
(§6) Cells (300,000 per well) from different cell lines were seeded in six-well plates. The next day, five wells were stimulated with nocodazole 200 ng/mL for 24 h. Then four wells were treated for 2 h with the inhibitors of interest. To analyze the expression of phosphorylated PLCγ, cells were incubated overnight in serum-free culture media. […] Supernatants were transferred in a 1.5 mL Eppendorf tube and protein concentrations were determined using the Direct Detect Assay-Free cards and the Direct Detect Spectrometer (Merck Millipore, Decantur, IL, USA). […]

[8] = tested on: phosphorylation of Akt at Thr308 in AsPC-1; assay: as above; conditions: 5 μM, FBS 1 h
Procedure: as §3, §6

| Compound | effect on phosphorylation of PLK1 at Thr210 [1] | effect on phosphorylation of PLK1 at Thr210 [2] | effect on phosphorylation of Aurora A at Thr288 [3] | effect on phosphorylation of Aurora A at Thr288 [4] | effect on EGF-induced activation of PLCγ1 (Tyr783) [5] | effect on EGF-induced activation of PLCγ1 (Tyr783) [6] | effect on FBS-induced phosphorylation of Akt at Thr308 [7] | effect on FBS-induced phosphorylation of Akt at Thr308 [8] |
| --- | --- | --- | --- | --- | --- | --- | --- | --- |
| CCN1CCN(C(=O)Cc2ccc(Nc3ncc(F)c(Nc4ccc(C(=O)Nc5ccccc5Cl)cc4)n3)cc2)CC1 [Aur I] | reduction in the phosphorylation of PLK1 | reduction in the phosphorylation of PLK1 | efficiently reduced | efficiently reduced | – | – | – | – |
| CNc1nc(-c2ccc3c(N)n[nH]c3c2)cc(N2C[C@@H](C(=O)NC3CCCCC3)CC[C@H]2C)n1 [GSK2334470] | – | – | – | – | strongly reduced | strongly reduced | efficiently reduced | efficiently reduced |
